# Measured values taken from patent US20230089723A1, “AMINO ACID COMPOSITIONS AND METHODS FOR MUSCLE AND MYOTUBE MODULATION” (AXCELLA HEALTH INC., priority 2020, published 2023).
# Key:
# [1] = system: cultured human myotubes (primary myoblasts W018); assay: In vitro model for muscle protein synthesis: Click-iT OPP incorporation in myotubes (modified MyoScreen); assay type: cell-based; conditions: myotubes in DMEM with 0.15× plasma amino acid profile, treated with amino acids at 1× human plasma concentration, 4 days; Click-iT signal in myotube mask
# Protocol: The ability of amino acids to influence protein synthesis in muscle cells was assessed using a modified version of MyoScreen (Cytoo SA, Grenoble Fr).
# (§1) Primary myoblasts (W018) were amplified and seeded into CYTOOplates on Day 0. After one day differentiation was started in DMEM/F12+GlutaMAX supplemented with 0.1% Horse Serum.
# Protein Synthesis after 4 Days by Fluorescence Microscopy
# After 4 days of culture, cells were washed twice with PBS 1× (Gibco), fixed with 4% Paraformaldehyde, and washed twice with PBS 1× (100 μL). Cells were then permeabilized by 0.5% Triton X-100 followed by three washes with PBS. After fixation, cells were immuno-stained for troponin to identify specific myotubes. […] In the Click-iT assay, 0-propargyl-puromycin (OPP) is efficiently incorporated into newly translated proteins in vivo for 30 minutes and then fluorescently labeled with Alexa Fluor® dye, which can be detected by high-content imaging (Molecular Devices). Click-iT signal was restricted to the myotube mask generated by the troponin co-stain. Data was collected as Click-iT mean intensity in myotubes (au). Images were acquired with Operetta HCS platform (Perkin Elmer) using a 10× objective in three fluorescent channels: nuclei, Troponin T, and Click-iT. Image processing and analysis were performed with a dedicated algorithm developed on Acapella high Content imaging Software (Perkin Elmer) at CYTOO. […]
# [2] = system: differentiating cultured human myotubes (primary myoblasts W018); assay: In vitro model for myogenesis: myotube fusion index (modified MyoScreen); assay type: cell-based; conditions: myotubes in DMEM with 0.15× plasma amino acid profile, treated with amino acids at 1× human plasma concentration, 4 days
# Protocol: as §1
# Fusion Index Analysis after 4 Days by Fluorescence Microscopy
# Images were acquired with Operetta HCS platform (Perkin Elmer) using a 10× objective in two fluorescent channels: nuclei, Troponin T. Image processing and analysis were performed with a dedicated algorithm developed on Acapella high Content imaging Software (Perkin Elmer) at CYTOO. Nuclei within myotubes were counted under myotube mask generated by troponin co-stain and fusion index was calculated as the percentage of fused nuclei in myotube over total nuclei. Statistical analysis was done with T-Test relative to the untreated condition.
compound,measurement,setting,value
"N[C@@H](CC(=O)O)C(=O)O [D, Aspartic acid/Aspartate]",Protein Synthesis median,[1],0.1078
same,Fusion Index median,[2],0.05657
